Reference: the supplement of paper PMC10307832

Key:
Assay in all cases: relative viability (nuclei count vs DMSO), 5 days (fraction); higher = more cells survive
[1] = compound: C=CCn1c(=O)c2cnc(Nc3ccc(N4CCN(C)CC4)cc3)nc2n1-c1cccc(C(C)(C)O)n1 [Adavosertib] + C[C@@H](Oc1cc(-c2cnn(C3CCNCC3)c2)cnc1N)c1c(Cl)ccc(F)c1Cl [Crizotinib] (partner 1 µM)
Summary of the method: (§1)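 Lung cancer cell lines, seeded in 1536-well plates, were treated the following day by pin tool with a single drug or with five library-drug doses (not always all listed) in √10 steps on top of a fixed anchor-drug dose. Cells were fixed and nuclei stained in one step after 5 days, and nuclei were counted. Relative viability is the nuclei count for treated wells divided by that for vehicle wells, reported as medians of duplicate plates.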

[2] = compound: C=CCn1c(=O)c2cnc(Nc3ccc(N4CCN(C)CC4)cc3)nc2n1-c1cccc(C(C)(C)O)n1 [Adavosertib] + CC(C)C[C@H](NC(=O)[C@H](Cc1ccccc1)NC(=O)c1cnccn1)B(O)O [Bortezomib] (partner 0.002 µM)
Summary of the method: as §1

[3] = compound: COc1nc(N)nc2c1ncn2[C@@H]1O[C@H](CO)[C@@H](O)[C@@H]1O [Nelarabine] + NC(=O)Nc1cc(-c2cccc(F)c2)sc1C(=O)N[C@H]1CCCNC1 [AZD7762] (partner 0.2 µM)
Summary of the method: as §1

[4] = compound: COc1nc(N)nc2c1ncn2[C@@H]1O[C@H](CO)[C@@H](O)[C@@H]1O [Nelarabine] + CC(C)C[C@H](NC(=O)[C@H](Cc1ccccc1)NC(=O)c1cnccn1)B(O)O [Bortezomib] (partner 0.002 µM)
Summary of the method: as §1

Row | Cell Line | relative viability ([1]; first compound 0.01 µM) | relative viability ([1]; first compound 0.03162 µM) | relative viability ([1]; first compound 0.1 µM) | relative viability ([1]; first compound 0.3162 µM) | relative viability ([2]; first compound 0.01 µM) | relative viability ([2]; first compound 0.03162 µM) | relative viability ([2]; first compound 0.1 µM) | relative viability ([2]; first compound 0.3162 µM) | relative viability ([3]; first compound 0.01 µM) | relative viability ([3]; first compound 0.03162 µM) | relative viability ([3]; first compound 0.1 µM) | relative viability ([3]; first compound 0.3162 µM) | relative viability ([3]; first compound 1 µM) | relative viability ([4]; first compound 0.01 µM) | relative viability ([4]; first compound 0.03162 µM) | relative viability ([4]; first compound 0.1 µM) | relative viability ([4]; first compound 0.3162 µM) | relative viability ([4]; first compound 1 µM)
1 | NCI-H1755 | 0.885 | 0.882 | 0.911 | 0.739 | 0.965 | 0.905 | 1.01 | 1.03 | 0.473 | 0.455 | 0.425 | 0.516 | 0.474 | 1.02 | 0.971 | 0.947 | 1.03 | 1.03
2 | COR-L23 | 0.69 | 0.731 | 0.797 | 0.304 | 0.976 | 1.03 | 0.95 | 0.546 | – | – | – | – | – | 1.33 | 1.08 | 1.08 | 0.942 | 0.983
3 | SK-LU-1 | 0.837 | 0.844 | 0.553 | 0.325 | 1.07 | 1.29 | 1.16 | 0.479 | – | – | – | – | – | 1.56 | 1.02 | 1.61 | 1.1 | 1.13
4 | SW 900 | – | – | – | – | – | – | – | – | 0.636 | 0.569 | 0.556 | 0.645 | 0.535 | – | – | – | – | –
5 | PC-3 [JPC-3] | 0.996 | 0.905 | 1.06 | 1 | 0.808 | 0.812 | 0.853 | 0.793 | 0.9 | 0.764 | 0.761 | 0.957 | 0.792 | 1.08 | 0.905 | 0.826 | 0.743 | 0.776
6 | EKVX | 1.13 | 0.952 | 0.776 | 1.06 | 0.992 | 1.14 | 0.996 | 1.27 | 0.977 | 0.63 | 0.606 | 0.717 | 0.732 | 1.35 | 0.853 | 1.05 | 1.25 | 1.14
7 | NCI-H322M | – | 0.982 | 0.834 | 0.743 | – | 1.17 | 1.2 | 0.869 | 0.559 | 0.553 | 0.522 | 0.595 | 0.507 | 1.29 | 1.2 | 1.18 | 1.28 | 1.46
8 | NCI-H2087 | 0.911 | 0.96 | 1.03 | 0.896 | 0.883 | 0.894 | 1.05 | 0.918 | 1.72 | 1.42 | 1.37 | 1.51 | 1.21 | 1.08 | 0.821 | 1.03 | 1.03 | 0.793
9 | NCI-H2405 | 0.804 | 0.875 | 0.872 | 0.879 | 0.984 | 1.01 | 1.01 | 1.07 | 0.837 | 0.647 | 0.71 | 0.736 | 0.81 | 1.06 | 0.943 | 0.908 | 1.03 | 0.954
10 | NCI-H1915 | 0.941 | 0.812 | 0.981 | 1 | 0.93 | 0.967 | 0.987 | 0.972 | 0.747 | 0.728 | 0.687 | 0.704 | 0.733 | 1.25 | 0.871 | 1.04 | 0.975 | 0.96
